Results: patent US9258998B2, “Methods for controlling flower development in plants” (Yale University, priority 2009, dated 2016)

Experiments:
Type in all cases: in vivo
[1] = system: ts1 mutant (ts1-ref/ts1-ref) plants; test: Jasmonic acid treatment of ts1 mutant maize tassels
Method: (§1) Maize plants were grown under greenhouse conditions. Two seeds were planted in 2-gallon reusable pots containing Super-Fine Germinating Mix (Fafard, Agawam, Mass., USA) or Redi-earth Professional Growing Mix (Sun Gro, Bellevue, Wash., USA). Fertilization was performed with controlled release Osmocote Plus 15-9-12 (Scotts, Marysville, Ohio, USA) following the manufacturer recommendations. Additional watering was performed with 4% ammonium iron citrate (Sigma-Aldrich) every 2 weeks to prevent chlorosis. Greenhouse average temperatures were 28° C. (day) and 21° C. (night). Supplemental lightning was provided to achieve a 16:8 hour photoperiod yearlong.
(§2) Tassels of about 1 cm were considered to be at an ideal stage to initiate chemical treatments. Since a thick leaf whorl covers the maize tassel at this time of development, only a destructive dissection of the plant permits to assess with certainty the stage of tassel development (Bonnet, 1940, J. Agricult. Res. 60:25; Bonnet, 1948, Ann. Mo. Bot. Gard. 35:269). Additionally, the sex determination phase was reached within a wide time window, between 28 and 46 days post-planting, depending on the growing conditions. Leaf number, node number or internode distance were not always reliable criteria to predict the tassel developmental stage.
Seedlings from a family segregating 1:1 for wild-type (ts1-ref/Ts1) and ts1 mutant (ts1-ref/ts1-ref) plants were genotyped for the Ts1 and ts1-ref alleles with a PCR-based assay. […] Jasmonic acid (JA, Sigma-Aldrich) was dissolved at a concentration of 200 mM in absolute ethanol and stored at −20° C. Prior to plant treatment, the JA stock solution was diluted to a concentration of 1 mM in deionized water. Control plants were treated with a 0.005% ethanol solution (“blank” treatment or negative control). One ml of the corresponding solution was applied into the apical leaf cavity of each plant. Treatments were performed three times at 48-hour intervals.
The developmental timing of the pistil abortion process occurs in tassel inflorescences when they are 1.0 to 3.0 cm in length (Irish & Nelson, 1993, Am. J. Bot. 80:292), which was also the stage at which ts1 expression occurred in the subtending glumes (FIGS. 6B to 6D). A 0.005% ethanol solution, with or without 1 mM JA, was applied to tassels of ˜1 cm in wildtype (ts1-ref/+) or ts1 mutant (ts1-ref/ts1-ref) sibling plants.

[2] = system: mutant ts2-ref/ts2-ref and ts2-ref/+ plants; test: Jasmonic acid treatment of ts2 maize plants; conditions: JA applied as for ts1 plants
Method: as §1
as §2, with “stage. […]” for “stage.”

[3] = system: wildtype (ts1-ref/+) sibling plants; test: Jasmonic acid treatment of heterozygous wild-type sibling maize plants; conditions: 1 mM JA, three times at 48-hour intervals
Method: as §1
as §2, with “stage. […]” for “stage.”

[4] = 1 mM JA, three times at 48-hour intervals

CC/C=C\C[C@H]1C(=O)CC[C@@H]1CC(=O)O [JA, (1R,2R)-3-oxo-2-(2Z)-2-pentenylcyclopentaneacetic acid]
sexual phenotype of tassel (feminization; staminate spikelets) ([1]; 1 mM JA in 0.005% ethanol, 1 ml into apical leaf cavity, three times at 48-hour intervals, tassels of ~1 cm): reversed feminization | glume morphology of treated ts1 mutants [1, 4]: elongated, were covered with numerous trichomes, and had a ring of anthocyanin deposited at the base | time to appearance of wildtype rescue in glumes after treatment [1, 4]: 3 to 4 weeks | stamen emergence from treated ts1 mutant spikelets ([1]; later in floral development): stamens emerged | pollen viability of staminate florets from rescued ts1/ts1 plants ([1]; pollen used for self-pollination and test crosses): produced viable pollen | completeness of rescued tassel inflorescence phenotype ([1]; some spikelets bisexual, others at base pistillate): incomplete | response of ts2 plants to treatment [2]: responded in the same manner as the JA-treated ts1 mutants | effect of treatment on heterozygous ts1-ref/+ sibs [3]: nor did JA treatment affect heterozygous ts1-ref/+ sibs
